Source: patent EP0383591B1, “Use of 5-methyl-1-phenyl-2-(1H)-pyridone in the prevention of fibrotic lesions” (Yamauchi, Shitotomo, priority 1989, dated 1990)
Where “and” joins values, the source holds several entries; their conditions need not be identical. Equal entries are not always repeated. Marks after values point to notes of the source that are not given here.

How the values were obtained:
[1] = test system: Asbestos-Induced Pulmonary Interstitial Fibrosis; experiment: Effect of oral 5MP2P upon asbestos-induced pulmonary interstitial fibrosis in hamsters; format: in vivo; design: key to Pulmonary Fibrosis Scores Light Microscope (individual animal) / Pulmonary Fibrosis Scores Electron Microscope (individual animal): 0 = normal tissue; 1 = minimal; 2 = moderate; 3 = severe
Excerpt: In hamsters, pulmonary fibrosis induced with crysotile asbestos was removed following oral 5MP2P (cf. Table 4).
The novel role of 5MP2P in the therapeutic repair of fibrotic lung tissue featuring removal of fibrotic lesions, and concomitant regeneration of normal lung tissue has been observed in experimental asbestosis by histopathological examination of lung tissue specimens under the light microscope, and electron microscopy (Table 4).
This was subsequently confirmed by ashing of lung specimens in a laboratory oven, and then determining the asbestos content.

[2] = test system: fibrosis (interstitial hyperplasia); experiment: Histopathological examination of the lungs of rats for fibrosis after 5MP2P in the diet; format: in vivo
Protocol: The results of a histopathological examination of the lungs of rats for fibrosis (interstitial hyperplasia) after receiving 300 mg/kg body of 5MP2P in the diet for three months are summarized in Table 2. The individual microscopic readings of the lung are also shown in Table 2, a score schedule of 0, 1, 2 and 3 reflects the degree of fibrosis.
The data in […] reveal a statistically significant reduction in amount of fibrosis in rats receiving 5MP2P as compared to placebo control rats (Group 1). The mean score for the controls (Group 1) was 1.63 + 0.23, and for Group IV (5MP2P, 300 mg/kg body weight daily) was 0.95 + 0.23.
Student's T value was 2.43, with P less than 0.02 (highly significant statistically).

Acute toxicity (LD50) = details: in vivo
Excerpt: The acute toxicity of the ingredient in the medical composition of the present invention which exerts the anti-fibrotic activity is as shown in the table below.

[3] = test system: Pulmonary Interstitial Hyperplasia (Fibrosis); experiment: Effect of oral 5MP2P upon pulmonary interstitial hyperplasia in dogs; format: in vivo, Beagle dogs
Protocol: The mean score for Group I (Control) was 2.11 + 0.31, and for Group IV, which received 5MP2P, 150 mg/kg per day orally in capsules, was 0.22 + 0.15.

[4] = test system: Pulmonary Interstitial Hyperplasia (Fibrosis); experiment: as above; format: in vivo, Beagle dogs; details: for Hyperplasia Scores 0 (number of dogs): 0 = normal tissue; for Hyperplasia Scores 1 (number of dogs): 1 = minimal; for Hyperplasia Scores 2 (number of dogs): 2 = moderate; for Hyperplasia Scores 3 (number of dogs): 3 = severe; for Incidence of Normal Lung / Average Scores (hyperplasia): dogs; for Incidence of Normal Lung: control 0/9; for Average Scores (hyperplasia): score 0-3, control 2.11+0.31
[5] = hamsters, Group III: asbestos by inhalation for 5 days, 5MP2P 500 MG/KG/day orally in the diet for two months, beginning two months after exposure
[6] = 300 mg/kg in the diet for three months, 19 animals

Cc1ccc(=O)n(-c2ccccc2)c1 [5MP2P, 5-Methyl-1-phenyl-2-(1H)-pyridone]
recurrence of asbestos-induced fibrosis ([1]; after 5MP2P had been discontinued for two months): did not recur
lung cell-imbedded asbestos fibers ([1]; electron microscope, confirmed by ashing of lung specimens and determining the asbestos content): had been removed
Pulmonary Fibrosis Scores Lung Density, Average ([1]; hamsters, Group III, 500 MG/KG/day in the diet for two months, asbestos without 5MP2P 2.53+0.23, no asbestos 1.00+0.05): 1.17+0.10**
Pulmonary Fibrosis Scores Electron Microscope, Average ([1]; hamsters, Group III, 500 MG/KG/day in the diet for two months, asbestos without 5MP2P 2.75+0.25, no asbestos 0.25+0.25): 0.25+0.25**
Pulmonary Fibrosis Scores Light Microscope, Average ([1]; hamsters, Group III, 500 MG/KG/day in the diet for two months, asbestos without 5MP2P 2.75+0.25, no asbestos 0.50+0.25): 1.00+0.41**
Pulmonary Fibrosis Scores Electron Microscope (individual animal) [1, 5]: 0 (3×) and 1
Pulmonary Fibrosis Scores Light Microscope (individual animal) [1, 5]: 0 and 2 and 1 (2×)
Pulmonary Fibrosis Scores Lung Density (individual animal) [1, 5]: 0.98 and 1.04 and 1.26 and 1.41
pulmonary fibrosis induced with crysotile asbestos ([1]; hamsters, oral 5MP2P): removed
Lung Connective Tissue Score 0, Total (number of animals) [2, 6]: 5
Lung Connective Tissue Score 1, Total (number of animals) [2, 6]: 11
Lung Connective Tissue Score 2, Total (number of animals) [2, 6]: 2
Lung Connective Tissue Score 3, Total (number of animals) [2, 6]: 1
Lung Connective Tissue Score, Mean ([2]; Group IV, 300 mg/kg body weight daily in the diet for three months, score schedule 0-3, control mean 1.63, P<0.02, 300 mg/kg): 0.95 ± 0.23 and 0.95
LD50 (Acute toxicity (LD50); ip, Guinea pig): 460 ± 28 mg/kg
LD50 (Acute toxicity (LD50); ip, Mouse): 600 ± 43 mg/kg
LD50 (Acute toxicity (LD50); ip, Rat): 430 ± 29 mg/kg
LD50 (Acute toxicity (LD50); iv, Cat): 40 mg/kg
LD50 (Acute toxicity (LD50); iv, Dog): 200 mg/kg
LD50 (Acute toxicity (LD50); iv, Monkey): 100 mg/kg
LD50 (Acute toxicity (LD50); iv, Mouse): 285 ± 5 mg/kg
LD50 (Acute toxicity (LD50); iv, Rabbit): 280 ± 32 mg/kg
LD50 (Acute toxicity (LD50); po, Cat): 500 mg/kg
LD50 (Acute toxicity (LD50); po, Dog): 300 mg/kg
LD50 (Acute toxicity (LD50); po, Guinea pig): 810 ± 25 mg/kg
LD50 (Acute toxicity (LD50); po, Mouse): 998 mg/kg
LD50 (Acute toxicity (LD50); po, Rat female): 2300 mg/kg
LD50 (Acute toxicity (LD50); po, Rat male): 1300 mg/kg
Hyperplasia Scores 0 (number of dogs) ([3]; 150 MG/KG/day, 9 dogs, 0 = normal tissue): 7
Hyperplasia Scores 1 (number of dogs) ([3]; 150 MG/KG/day, 9 dogs, 1 = minimal): 2
Incidence of Normal Lung ([3]; dogs, 150 MG/KG/day oral, control 0/9): 7/9
Hyperplasia Scores 0 (number of dogs) ([4]; 25 MG/KG/day, 6 dogs): 1
Hyperplasia Scores 1 (number of dogs) ([4]; 25 MG/KG/day, 6 dogs): 1
Hyperplasia Scores 2 (number of dogs) ([4]; 25 MG/KG/day, 6 dogs): 4
Hyperplasia Scores 3 (number of dogs) ([4]; 25 MG/KG/day, 6 dogs): 0
Hyperplasia Scores 0 (number of dogs) ([4]; 75 MG/KG/day, 8 dogs): 2
Hyperplasia Scores 1 (number of dogs) ([4]; 75 MG/KG/day, 8 dogs): 2
Hyperplasia Scores 2 (number of dogs) ([4]; 75 MG/KG/day, 8 dogs): 3
Hyperplasia Scores 3 (number of dogs) ([4]; 75 MG/KG/day, 8 dogs): 1
Hyperplasia Scores 2 (number of dogs) ([4]; 150 MG/KG/day, 9 dogs): 0
Hyperplasia Scores 3 (number of dogs) ([4]; 150 MG/KG/day, 9 dogs): 0
Incidence of Normal Lung ([4]; 25 MG/KG/day oral): 1/6
Incidence of Normal Lung ([4]; 75 MG/KG/day oral): 2/8
Average Scores (hyperplasia) ([4]; Group II, 25 MG/KG/day oral): 1.50+0.34
Average Scores (hyperplasia) ([4]; Group III, 75 MG/KG/day oral): 1.38+0.38
